# Like-named read-outs stand apart in the source and are kept apart here.
# Test system: Coptotermes formosanusus Shiraki
# Test: Termite control soil treatment test (Japan Wood Preservation Association Standards No. 13, 1987): bored depth, damage by eating, termite control effect
# Format: in vivo
# Settings: for Bored depth (mm) 14 days later: treated soil layer 1 cm
# Excerpt: In the description of these embodiments, the term “part(s)” means part(s) by weight. The test method of embodiments was in accordance with Japan Wood Preservation Association Standards No. 13, 1987, “Standards for Testing Methods of Termite Controlling Effects and Performance of Termite Controlling Agents for Soil Treatment (I)”.
# A testing apparatus was used in which two glass cylinders (each about 5 cm in diameter and about 12 cm in height) are connected at about 2 cm from the bottom with a glass tube about 1.5 cm in diameter and about 10 cm in length (graduated at 5-mm intervals for 5 cm at the center). The one glass cylinder was filled with about 60 g of non-treated soil adjusted to a moisture content of about 25%, and the other glass cylinder was filled with about 0.29 g of filter paper (5.5 mm in diameter). The glass tube was filled, at a thickness of 1 cm, with test soil prepared by mixing 2.4 g of non-treated sandy soil which had passed through a 20-mesh screen and had been dried at 60° C. until a constant weight had been achieved, with 0.45 g of the solution of the test composition of a predetermined concentration, and the mixture was allowed to stand for 3 weeks in a room without weather resistance treatment. The glass tube was connected to the glass cylinders.
# In the glass cylinder filled with non-treated soil, 200 workers and 20 soldiers of Coptotermes formosanusus Shiraki were placed, and the testing apparatus was kept at a constant temperature chamber controlled at a temperature of 28° C., and a relative humidity of 70% or higher.
# The bored depth (millimeters=mm), damage by eating, and the termite control effect were determined 14 days after insects were put in place, and the effect was evaluated in accordance with the following criteria: […]
# [1] = Concentration (%) 0.05, single ingredient
# [2] = Coptotermes, soil, 336 h, read-out: Termite control effect 14 days later
# [3] = Concentration (%) 0.005, single ingredient
# [4] = Concentration (%) 0.025, single ingredient
# [5] = Concentration (%) 0.02, single ingredient
# [6] = Concentration (%) 0.1, single ingredient
# [7] = Concentration (%) 0.01, single ingredient
# [8] = Concentration (%) 0.002, single ingredient
SMILES,Damage by eating 14 days later [1],Bored depth (mm) 14 days later [1],pest or weed control at 0.05 % [2],Damage by eating 14 days later [3],Bored depth (mm) 14 days later [3],pest or weed control at 0.005 % [2],Damage by eating 14 days later [5],Bored depth (mm) 14 days later [5],Damage by eating 14 days later [7],Bored depth (mm) 14 days later [7],pest or weed control at 0.01 % [2],also measured
CC(C)[C@H](Nc1ccc(C(F)(F)F)cc1Cl)C(=O)OC(C#N)c1cccc(Oc2ccccc2)c1 (stereo partly drawn) [Fluvalinate],+++ (51% or more compared with non-treatment),>10 mm,< 49%,–,–,–,–,–,–,–,–,–
"CC1(C)C(C=C(Cl)Cl)C1C(=O)OC(C#N)c1cccc(Oc2ccccc2)c1 (racemic) [Cypermethrin, (RS)-a-cyano-3-phenoxybenzyl (1RS,3RS)-(1RS,3SR)-3-(2,2-dichlorovinyl)-2,2-dimethylcyclopropane carboxylate]",–,–,–,+++ (51% or more compared with non-treatment),>10 mm,< 49%,–,–,–,–,–,Damage by eating 14 days later [4]: None; Bored depth (mm) 14 days later [4]: >10 mm; pest or weed control at 0.025 % [2]: < 49%
"CCOc1ccc(C(C)(C)COCc2cccc(Oc3ccccc3)c2)cc1 [Ethofenprox, 2-(4-ethoxyphenyl)-2-methylpropyl-3-phenoxybenzyl ether]",–,–,–,–,–,–,+++ (51% or more compared with non-treatment),>10 mm,–,–,–,Termite control effect 14 days later [5]: D (49% lethal or less); Damage by eating 14 days later [6]: None; Termite control effect 14 days later [6]: D (49% lethal or less); Bored depth (mm) 14 days later [6]: >10 mm
"CC1(C)C(C=C(Cl)Cl)C1C(=O)OCc1cccc(Oc2ccccc2)c1 (racemic) [Permethrin, 3-phenoxybenzyl (1RS,3RS)-(1RS,3RS)-(2,2-dichlorovinyl)-2,2-diimethylcyclopropane carboxylate]",–,–,–,–,–,–,+++ (51% or more compared with non-treatment),>10 mm,–,–,–,Damage by eating 14 days later [6]: None; Bored depth (mm) 14 days later [6]: >10 mm; pest or weed control at 0.02 % [2]: < 49%; pest or weed control at 0.1 % [2]: < 49%
"CCOc1ccc([Si](C)(C)CCCc2ccc(F)c(Oc3ccccc3)c2)cc1 [Silafluofen, 4-ethoxyphenyl-[3-(3-phenoxy-4-fluorophenyl)propyl](dimnethyl)silane]",+ (10% or less compared with non-treatment),>10 mm,100%,–,–,–,–,–,+++ (51% or more compared with non-treatment),>10 mm,< 49%,–
"CC1(C)[C@H](C(=O)O[C@@H](C#N)c2ccc(F)c(Oc3ccccc3)c2)[C@@H]1C=C(Cl)Cl (racemic) [Cyfluthrin, (RS)-a-cyano-4-fluoro-3-phenoxybenzyl (1RS, 3RS)-(1RS, 3RS)-3-(2,2-dichlorovinyl)-2,2-dimethylcyclopropane carboxylate]",–,–,–,+++ (51% or more compared with non-treatment),>10 mm,–,–,–,–,–,–,Termite control effect 14 days later [3]: D (49% lethal or less); Damage by eating 14 days later [4]: None; Termite control effect 14 days later [4]: D (49% lethal or less); Bored depth (mm) 14 days later [4]: >10 mm
"Cc1c(COC(=O)[C@@H]2[C@H](/C=C(\Cl)C(F)(F)F)C2(C)C)cccc1-c1ccccc1 (racemic) [Bifenthrin, 2-methylbiphenyl-3-yl-methyl (Z)-1RS,3RS)-3-(2-chloro-3,3,3-trifluoroprop-1-enyl)-2-2-dimnethylcyclopropane carboxylate]",–,–,–,+++ (51% or more compared with non-treatment),>10 mm,< 49%,–,–,+++ (51% or more compared with non-treatment),>10 mm,< 49%,–
"N#Cc1nn(-c2c(Cl)cc(C(F)(F)F)cc2Cl)c(N)c1[S+]([O-])C(F)(F)F (stereo not drawn) [Compound A, 5-amino-3-cyano-1-(2,6-dichloro-4-trifluoromethylphenyl)-4-trifluoromethylsulphinylpyrazole]",–,–,–,++ (11-50% or less compared with non-treatment),>10 mm,100%,+ (10% or less compared with non-treatment),>10 mm,+ (10% or less compared with non-treatment),>10 mm,100%,pest or weed control at 0.02 % [2]: 100%
"CC1(C)[C@H](C(=O)O[C@H](C#N)c2cccc(Oc3ccccc3)c2)[C@@H]1C(Br)C(Br)(Br)Br (stereo partly drawn) [Tralomethrin, (S)-a-cyano-3-phenoxybenzyl (1R,3S)-2,2-dinethyl-3-(1,2,2,2-tetrabromoethyl)cyclopropane carboxylate]",–,–,–,–,–,–,–,–,+++ (51% or more compared with non-treatment),>10 mm,–,"Damage by eating 14 days later [8]: +++ (51% or more compared with non-treatment); Bored depth (mm) 14 days later [8]: >10 mm; pest or weed control at 0.002 % (Coptotermes, soil, 336 h, Concentration (%) 0.002, single ingredient, read-out: Termite control effect 14 days later): < 49%; pest or weed control at 0.01 % (Coptotermes, soil, 336 h, Concentration (%) 0.01, single ingredient, read-out: Termite control effect 14 days later): < 49%"
"CC(C)C(C(=O)OC(C#N)c1cccc(Oc2ccccc2)c1)c1ccc(Cl)cc1 (racemic) [Fenvalerate, (RS)-a-cyano-3-phenoxybenzyl (RS)-2-(4-chlorophenyl)-3-methylbutanoate]",+ (10% or less compared with non-treatment),>10 mm,100%,–,–,–,–,–,+++ (51% or more compared with non-treatment),>10 mm,< 49%,–

# Reference: patent US6472417B1, “Synergistic pesticidal composition of pyrethroid and N-phenyl-pyrazole” (priority 1994, dated 2002)
